Data published in the METLIN SMRT retention time set (Domingo-Almenara et al. 2019).

Assay: gradient 5% acetonitrile 3 min, to 50% in 2 min, to 85% in 15 min, held 3 min, 100 µL/min
Settings: column: Zorbax Extend-C18 2.1 x 50 mm; eluents: water / acetonitrile, 0.1% formic acid
In short: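 The system's dead and dwell volumes were 40 μL and 900 μL, with a Zorbax Extend-C18 column (2.1 × 50 mm, 1.8 μm) run at 100 μL/min in water and acetonitrile containing 0.1% formic acid each. Pure standards were analyzed in mixtures of ~100 molecules by HPLC–quadrupole time-of-flight mass spectrometry in positive and negative ionization mode. Retention time was assigned from computationally picked, manually inspected adduct peaks.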

Row | RP-LC retention time | SMILES
1 | 915 s | O=C(Cn1cccc1-c1nnc(C2CCC2)o1)N1CCc2ccccc2C1
2 | 720 s | CCCN1C(=O)c2cccnc2Sc2cc(C(=O)N3CCCC3)ccc21
3 | 1010 s | COc1ccc(N2CCN(c3cc(C)nc4nc(-c5ccc(C)cc5)nn34)CC2)cc1
4 | 972 s | CCOC(=O)c1ccc(N2C=C(C#N)S(=O)(=O)c3ccc(F)cc32)cc1
5 | 771 s | O=C(C1CCOC1)N1CCCn2nc(-c3cccc(Cl)c3)cc2C1 (stereo not drawn)
6 | 1040 s | COc1ccc(-n2c(=O)c3sccc3n(Cc3nc(-c4ccc(F)c(Cl)c4)no3)c2=O)cc1
7 | 1020 s | CC(C)Oc1ccc(-c2noc(CN3N=NC4C(=O)N(c5ccccc5)C(=O)C43)n2)cc1 (stereo not drawn)
8 | 662 s | O=C(Nc1ccc2c(c1)OCCO2)C1CCN(c2cc(N3CCSCC3)ncn2)CC1
9 | 649 s | Cc1cnc(C(=O)N2CCCCCCNC(=O)[C@@H]3CCC[C@@H]32)cn1
10 | 1180 s | CCC(C)n1c(=O)c2ccccc2n(Cc2nc(-c3cc(OC)cc(OC)c3)no2)c1=O (stereo not drawn)
11 | 667 s | Cn1cc(-c2cc3n(n2)CCC(=O)N3CC(=O)NCC2COCCO2)c2ccccc21 (stereo not drawn)
12 | 949 s | Cc1cccc(NS(=O)(=O)c2ccc(-c3nnc(C4CCC4)o3)o2)c1C
13 | 585 s | Cc1cc(C)c2c(n1)SCC(=O)N2CC(=O)NCCN(C)C1CCCCC1
14 | 615 s | Cc1cc(F)cc2c(=O)c3c([nH]c12)CCN(CC(=O)Nc1ccc2c(c1)OCO2)C3
15 | 1020 s | Cc1nc(-c2ccccc2Cl)sc1C(=O)NCCc1c[nH]c2ccccc12
16 | 747 s | Cc1ccc(C)c(NC(=O)C2CCN(S(=O)(=O)c3cc(C(=O)N4CCCC4)n(C)c3)CC2)c1
17 | 1100 s | CSc1ccc(Nc2ncccc2S(=O)(=O)Nc2ccc(F)cc2)cc1
18 | 828 s | CCOc1ccccc1C(=O)N1CCc2c(c(-c3nc(C4CC4)no3)nn2C)C1
19 | 572 s | O=C(NC1CC1)[C@@H]1OCCN(C2CC2)[C@H]1c1ccccc1
20 | 770 s | CC(=O)Nc1cccc(N2CC(C(=O)Nc3ccc(C(F)(F)F)cc3)CC2=O)c1 (stereo not drawn)
21 | 680 s | Cc1ccc(C)c(NC(=O)N2CCCC(Cn3c(C4CC4)nc4cccnc43)C2)c1 (stereo not drawn)
22 | 1220 s | COc1ccc2nc(-n3nc(C)cc3NC(=O)c3ccc([N+](=O)[O-])o3)sc2c1

Row | RP-LC retention time | SMILES
23 | 878 s | COC1C(=O)N(c2cccc(F)c2)C12CCN(C(=O)Nc1ccccc1)CC2 (stereo not drawn)
24 | 714 s | COc1cccc(CNC(=O)C2CCN(S(=O)(=O)c3cn(C(C)C)cn3)CC2)c1
25 | 1150 s | CCc1sc(NC(=O)Cc2ccc(C)cc2)nc1-c1ccccc1
26 | 859 s | COc1ccc(NC(=O)NC(C)C(=O)N2CCc3ccccc32)c(OC)c1 (stereo not drawn)
27 | 1210 s | Cc1sc(C)c(S(=O)(=O)N2CCCCC2)c1-c1cc(C(F)(F)F)on1
28 | 744 s | O=C(NCCn1c(=O)n(Cc2ccccc2)c2cccnc21)c1cccs1
29 | 589 s | Cc1ccc(CSc2nccc3c2ccn3CC(=O)NCCN2CCN(C)CC2)cc1
30 | 838 s | CN1C(=O)C2(CCN(C(=O)COc3ccc(Cl)cc3)C2)c2ccccc21 (stereo not drawn)
31 | 667 s | Cn1c(C(=O)NC2CCN(Cc3ccccc3)CC2)cc2c(=O)oc3ccccc3c21
32 | 667 s | O=C(Oc1coc(CSc2ncccn2)cc1=O)c1ccco1
33 | 879 s | COc1cccc(-n2c(N3CCCC(C(=O)NCCc4cccs4)C3)nc3ccsc3c2=O)c1 (stereo not drawn)
34 | 669 s | NC(=O)c1ccccc1NC(=O)C1CCN(C(=O)c2ccccc2F)CC1
35 | 810 s | CC(C)n1cnc2ccc(-c3noc(-c4cccc(F)c4)n3)cc21
36 | 795 s | CC(C)c1ccc(S(=O)(=O)N2CCN(c3cnn4cnnc4c3)CC2)cc1
37 | 1140 s | Cc1ccc(C)c(N2CCN(S(=O)(=O)c3cc(-c4nnc(C5CC5)o4)co3)CC2)c1
38 | 704 s | O=C(Cc1ccccc1Cl)NCC1CCN(C(=O)Oc2ccccc2)CC1
39 | 678 s | CC(=O)Nc1nnc(SCc2nnc(-c3ccc4c(c3)OCO4)o2)s1
40 | 722 s | COc1ccc(C(C)NC(=O)CCc2nnc3c4cc(-c5ccc(F)cc5)nn4ccn23)cc1OC (stereo not drawn)
41 | 597 s | CCN1CCN(CCNC(=O)C2CCN(C(=O)c3ccc(-n4ccc5ccccc54)s3)CC2)CC1
42 | 970 s | CCc1cnc2c(c1OC)c(=O)n(Cc1ccccc1F)c(=O)n2C
43 | 1240 s | c1ccc(-c2nc3cc(-c4noc(-c5ccco5)n4)ccc3o2)cc1
44 | 795 s | COCCNC(=O)C(=O)Nc1ccc(Br)cc1

Row | RP-LC retention time | SMILES
45 | 734 s | COc1ccccc1-c1nnc(C2CCN(S(C)(=O)=O)CC2)s1
46 | 722 s | CC(C)(C)NC(=O)NC1CCN(c2ccccc2)C1=O (stereo not drawn)
47 | 1050 s | CCOC(=O)c1c(C)oc2nc(C)nc(NCCc3ccc(OC)c(OC)c3)c12
48 | 888 s | CC(C)n1cnc(S(=O)(=O)N2CCC(C(=O)Nc3ccc(OC(F)(F)F)cc3)CC2)c1
49 | 928 s | O=C(c1cn(-c2ccc(-c3nc(C4CC4)no3)cn2)cn1)N1CCCCCC1
50 | 603 s | CC(C)(Oc1ccc(Cl)cc1)C(=O)N1CCN(CC(O)c2cccs2)CC1 (stereo not drawn)
51 | 997 s | Cc1ccc(NC(=O)Cn2cc(-c3ccccc3)c(N(C)C)n2)c(F)c1
52 | 770 s | CCn1cc(C)c(C(=O)O)c1CC(=O)N(C)c1ccccc1F
53 | 848 s | O=C(Nc1cnn(-c2ncc(N3CCSCC3)cn2)c1)NC1CCCC1
54 | 667 s | CC1(C)CC(=O)c2cn(-c3ccc(Cl)cc3)c(=O)c(C(=O)N3CCC(N4CCCCC4)CC3)c2C1
55 | 612 s | O=C(NCC1CC1)[C@@H]1OCCN(C2CC2)[C@H]1c1ccccc1
56 | 777 s | O=C(c1cc(-c2ccco2)on1)N1CCCC1c1ccccc1F (stereo not drawn)
57 | 705 s | O=C(Cc1ccccc1F)NC1CCN(c2cc(-c3cccs3)[nH]n2)C1 (stereo not drawn)
58 | 928 s | Cc1ccc(-n2ccc(=O)c(-c3nc(-c4cccc(F)c4)no3)n2)cc1
59 | 541 s | COc1cccc(CNC(=O)c2cn3cccc(C)c3n2)c1OC
60 | 573 s | CCC(=O)N1CCc2c(sc3ncnc(NCc4cccnc4)c23)C1
61 | 969 s | Cc1ccc(C(=O)NCc2nc(-c3ccc4c(c3)nnn4C3CCCC3)no2)cc1
62 | 903 s | CCC1Oc2ccc(S(=O)(=O)N3CCC(C(=O)Nc4ccc(C)cc4)CC3)cc2NC1=O (stereo not drawn)
63 | 768 s | COc1ccc(C(=O)CSc2nnc3sc4ccccc4n23)cc1OC
64 | 623 s | Cc1nncn1C1CN(C(=O)c2cc3ccccc3[nH]2)C1
65 | 647 s | COc1ccc(NC(=O)N2C[C@@H]3C[C@H]2C[C@@H]3NC(=O)c2ccccc2)c(OC)c1
66 | 757 s | O=C(C1CCN(Cc2cc3ccccc3n2Cc2ccccc2)CC1)N1CCCCC1

Row | RP-LC retention time | SMILES
67 | 833 s | CCN1C(=O)CCc2cc(NS(=O)(=O)c3cccc(Br)c3)ccc21
68 | 666 s | COc1ccc(CNC(=O)Cn2cnc3nc(N4CCC(C(=O)NC5CC5)CC4)sc3c2=O)cc1
69 | 759 s | N#Cc1ccc(Cl)cc1NC(=O)C(=O)NCC1CCCO1 (stereo not drawn)
70 | 673 s | CCC(=O)Nc1ccc(C2(C(=O)O)CCC2)cc1
71 | 675 s | CCCNC(=O)C1CCN(c2nc3ccsc3c(=O)n2-c2cccc(OC)c2)CC1
72 | 662 s | CN(C(=O)c1cc(-c2cccs2)n(C2CCS(=O)(=O)C2)n1)C1CCS(=O)(=O)C1 (stereo not drawn)
73 | 1170 s | O=c1c2cc3c(cc2nc(SCc2nc(-c4cccc(F)c4)no2)n1-c1ccc(F)cc1)OCO3
74 | 892 s | CC(Oc1ccc(Cl)cc1)C(=O)N1CCCN(c2cc(-c3ccc(Br)cc3)[nH]n2)CC1 (stereo not drawn)
75 | 726 s | O=C(Nc1ccc2nncn2c1)Nc1cc(F)ccc1F
76 | 838 s | Cc1ccccc1Cn1c(CN2CCC(C(=O)N3CCCCCC3)CC2)cc2ccccc21
77 | 598 s | CS(=O)(=O)Nc1cccc(NC(=O)c2ccc(N3CCCC3)nn2)c1
78 | 1160 s | CCCCOc1ccc(C(=O)NC2(c3nc(CC)no3)CCCCC2)cc1
79 | 588 s | CCN(CC)S(=O)(=O)c1ccc2c(c1)c(=O)c(C(=O)N1CCN(c3ccccn3)CC1)cn2C
80 | 667 s | COCCCNC(=O)C1CC(=O)N(CCc2c[nH]c3ccc(C)cc23)C1 (stereo not drawn)
81 | 968 s | CC1CCN(c2cc(-n3cnc(C(=O)NC4CCCC4)c3)ncn2)CC1
82 | 849 s | Cc1cccc(NS(=O)(=O)c2cc3c(s2)CCN(C(=O)C2CC2)C3)c1
83 | 888 s | CC(C)CCNC(=O)CN1C(=O)CC(c2cccs2)=Nc2ccccc21
84 | 761 s | CC(C)n1c(SCC(=O)N2CCCCC2)nnc1-c1ccc2c(c1)OCCCO2
85 | 895 s | CNC(=O)N1CCCC(c2cccc(C(=O)N3CCN(c4cccc(Cl)c4)CC3)c2)C1 (stereo not drawn)
86 | 998 s | COc1cc2c(cc1OC)C(COc1ccc(F)cc1)N(C(=O)C(C)(C)C)CC2 (stereo not drawn)
87 | 1110 s | CCn1c(=O)oc2cc(-c3noc(-c4cccc(F)c4)n3)ccc21

Row | SMILES | RP-LC retention time
88 | O=C(CN1CC=C(c2cnn(-c3ccc(F)cc3)c2)CC1)NCC1CCCO1 (stereo not drawn) | 628 s
